Reference: patent US20240059703A1 (AMGEN INC., priority 2021, published 2024)

What was measured:
[1] = test system: MIA PaCa-2 (human pancreatic carcinoma) cells; assay: Cell Viability Assay (CellTiter-Glo), MIA PaCa-2; format: cell-based; details: Homo sapiens, MIA PaCa-2, 72 h
Method: Serially-diluted compound or DMSO was added to the cells, and plates were incubated at 37° C., 5% CO2 for 72 h. Cell viability was measured using a CellTiter-Glo® Luminescent Cell Viability Assay kit (Promega) according to the manufacturer's protocol. The luminescence signal of treated samples was normalized to DMSO control, and data were analyzed using a 4-parameter logistic model to calculate IC50 values.

KRAS G12C = KRAS G12C (Homo sapiens (Human), UniProt P01116, C118A/G12C); assay: 2 h coupled exchange assay; format: biochemical; details: Avg 2 h Coupled exchange IC50, 2 h compound pre-incubation
Method: The term “2 h coupled exchange assay” or “20 h coupled exchange assay” as used herein refers to the assay described in the Section entitled “BIOLOGICAL EVALUATION.”

[2] = test system: A549 (human lung carcinoma) cells; assay: Cell Viability Assay (CellTiter-Glo), A549; format: cell-based; details: Homo sapiens, A549, 72 h
Method in brief: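 MIA PaCa-2 or A549 cells in RPMI 1640 with 10% FBS were seeded at 1.67E+04 cells/mL and incubated overnight. Serially diluted compound was then added for 72 h at 37° C, 5% CO2. Viability read by CellTiter-Glo luminescence, normalized to DMSO, with IC50 from a 4-parameter logistic fit.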

KRAS G12C, sequence (P01116 other isoform, or with tags, fused parts or gaps G12C/C118A): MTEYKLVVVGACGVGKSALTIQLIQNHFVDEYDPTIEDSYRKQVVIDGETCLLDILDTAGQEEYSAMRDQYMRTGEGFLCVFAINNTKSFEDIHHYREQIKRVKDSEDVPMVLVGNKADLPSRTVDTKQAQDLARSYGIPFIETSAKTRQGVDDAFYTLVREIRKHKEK

IC50 [1] [nM]	IC50 (KRAS G12C) [nM]	IC50 [2] [nM]	SMILES
174	167	> 5000	C=CC(=O)N1CC2(CCN(c3nc4c(c(-c5cc(O)ccc5Cl)c3C)CCN(C3CCCN(C)C3)C4)C2)C1 [Example 18-11, 1-(6-(4-(2-chloro-5-hydroxyphenyl)-3-methyl-7-((3R)-1-methyl-3-piperidinyl)-5,6,7,8-tetrahydro-1,7-naphthyridin-2-yl)-2,6-diazaspiro[3.4]octan-2-yl)-2-propen-1-one|1-(6-(4-(2-chloro-5-hydroxyphenyl)-3-methyl-7-((3S)-1-methyl-3-piperidinyl)-5,6,7,8-tetrahydro-1,7-naphthyridin-2-yl)-2,6-diazaspiro[3.4]octan-2-yl)-2-propen-1-one]
335	172	12500	C=CC(=O)N1CC2(CCN(c3nc4c(c(-c5ccc(F)cc5F)c3C)CCN(c3scnc3C)C4)C2)C1 [Example 18-12, 1-(6-(4-(2,4-difluorophenyl)-3-methyl-7-(4-methyl-1,3-thiazol-5-yl)-5,6,7,8-tetrahydro-1,7-naphthyridin-2-yl)-2,6-diazaspiro[3.4]octan-2-yl)-2-propane-1-one]
89	86	> 5000	C=CC(=O)N1CC2(CCN(c3nc4c(c(-c5cc(O)ccc5F)c3C)CCN(c3scnc3C)C4)C2)C1 [Example 18-13, 1-(6-(4-(2-fluoro-5-hydroxyphenyl)-3-methyl-7-(4-methyl-1,3-thiazol-5-yl)-5,6,7,8-tetrahydro-1,7-naphthyridin-2-yl)-2,6-diazaspiro[3.4]octan-2-yl)-2-propen-1-one]
167	376	> 25000	C=CC(=O)N1CC2(CCN(c3nc4c(c(-c5c(C)ccc6[nH]ncc56)c3C)CCN(C3COC3)C4)C2)C1 [Example 18-14, 1-(6-(3-methyl-4-(5-methyl-1H-indazol-4-yl)-7-(3-oxetanyl)-5,6,7,8-tetrahydro-1,7-naphthyridin-2-yl)-2,6-diazaspiro[3.4]octan-2-yl)-2-propen-1-one]
230	720	> 25000	C=CC(=O)N1CC2(CCN(c3nc4c(c(-c5c(F)ccc6[nH]ncc56)c3C)CCN(C(C)C)C4)C2)C1 [Example 18-15, 1-(6-(4-(5-fluoro-1H-indazol-4-yl)-3-methyl-7-(2-propanyl)-5,6,7,8-tetrahydro-1,7-naphthyridin-2-yl)-2,6-diazaspiro[3.4]octan-2-yl)-2-propen-1-one]
188	355	> 5000	C=CC(=O)N1CC2(CCN(c3nc4c(c(-c5c(C)ccc6[nH]ncc56)c3C)CCN(C3CC3)C4)C2)C1 [Example 18-16, 1-(6-(7-cyclopropyl-3-methyl-4-(5-methyl-1H-indazol-4-yl)-5,6,7,8-tetrahydro-1,7-naphthyridin-2-yl)-2,6-diazaspiro[3.4]octan-2-yl)-2-propen-1-one]
133	79	> 5000	C=CC(=O)N1CC2(CCN(c3nc4c(c(-c5cccc6cc(O)ccc56)c3C)CCN(C3CC3)C4)C2)C1 [Example 18-17, 1-(6-(7-cyclopropropyl-4-(6-hydroxy-1-naphthalenyl)-3-methyl-5,6,7,8-tetrahydro-1,7-naphthyridin-2-yl)-2,6-diazaspiro[3.4]octan-2-yl)-2-propen-1-one]
402	106	> 5000	C=CC(=O)N1CC2(CCN(c3nc4c(c(-c5cccc6cc(O)ccc56)c3C)CCN(CC(O)C(F)(F)F)C4)C2)C1 [Example 18-18, 1-(6-(4-(6-hydroxy-1-naphthalenyl)-3-methyl-7-((2R)-3,3,3-trifluoro-2-hydroxypropyl)-5,6,7,8-tetrahydro-1,7-naphthyridin-2-yl)-2,6-diazaspiro[3.4]octan-2-yl)-2-propen-1one|1-(6-(4-(6-hydroxy-1-naphthalenyl)-3-methyl-7-((2S)-3,3,3-trifluoro-2-hydroxypropyl)-5,6,7,8-tetrahydro-1,7-naphthyridin-2-yl)-2,6-diazaspiro[3.4]octan-2-yl)-2-propen-1-one]
135	374	> 25000	C=CC(=O)N1CC2(CCN(c3nc4c(c(-c5c(C)ccc6cnn(C)c56)c3C)CCN(C3CCCN(C)C3)C4)C2)C1 [Example 18-20, 1-(6-(4-(1,6-dimethyl-1H-indazol-7-yl)-3-methyl-7-((3R)-1-methyl-3-piperidinyl)-5,6,7,8-tetrahydro-1,7-naphthyridin-2-yl)-2,6-diazaspiro[3.4]octan-2-yl)-2-propen-1-one|1-(6-(4-(1,6-dimethyl-1H-indazol-7-yl)-3-methyl-7-((3S)-1-methyl-3-piperidinyl)-5,6,7,8-tetrahydro-1,7-naphthyridin-2-yl)-2,6-diazaspiro[3.4]octan-2-yl)-2-propen-1-one]
3370	800	> 25000	C=CC(=O)N1CC2(CCN(c3nc4c(c(-c5cccc(F)c5O)c3C)CCN(c3scnc3C)C4)C2)C1 [Example 18-21, 1-(6-(4-(3-fluoro-2-hydroxyphenyl)-3-methyl-7-(4-methyl-1,3-thiazol-5-yl)-5,6,7,8-tetrahydro-1,7-naphthyridin-2-yl)-2,6-diazaspiro[3.4]octan-2-yl)-2-propen-1-one]
374	74	> 5000	C=CC(=O)N1CC2(CCN(c3nc4cc(-c5scnc5C)cnc4c(-c4cccc(C)c4C)c3C#N)C2)C1 [Example 19-1, 4-(2,3-Dimethylphenyl)-7-(4-methyl-1,3-thiazol-5-yl)-2-(2-(2-propenoyl)-2,6-diazaspiro[3.4]octan-6-yl)-1,5-naphthyridine-3-carbonitrile]
1450	126	> 5000	C=CC(=O)N1CC2(CCN(c3nc4cc(-c5scnc5C)ccc4c(-c4ccccc4C)c3C#N)C2)C1 [Example 19-2, 4-(2-methylphenyl)-7-(4-methyl-1,3-thiazol-5-yl)-2-(2-(2-propenoyl)-2,6-diazaspiro[3.4]octan-6-yl)-3-quinolinecarbonitrile]
717	58	4180	C=CC(=O)N1CC2(CCN(c3nc4cc(-c5scnc5C)ccc4c(-c4c(O)cccc4F)c3C#N)C2)C1 [Example 19-3, 4-(2-fluoro-6-hydroxyphenyl)-7-(4-methyl-1,3-thiazol-5-yl)-2-(2-(2-propenoyl)-2,6-diazaspiro[3.4]octan-6-yl)-3-quinolinecarbonitrile]
452	96	> 5000	C=CC(=O)N1CC2(CCN(c3nc4cc(-c5scnc5C)cnc4c(-c4ccc(F)cc4F)c3C#N)C2)C1 [Example 19-5, 4-(2,4-difluorophenyl)-7-(4-methyl-1,3-thiazol-5-yl)-2-(2-(2-propenoyl)-2,6-diazaspiro[3.4]octan-6-yl)-1,5-naphthyridine-3-carbonitrile]
1130	363	> 5000	C=CC(=O)N1CC2(CCN(c3nc4cc(-c5scnc5C)cnc4c(-c4ccccc4OC)c3C#N)C2)C1 [Example 19-6, 4-(2-methoxyphenyl)-7-(4-methyl-1,3-thiazol-5-yl)-2-(2-(2-propenoyl)-2,6-diazaspiro[3.4]octan-6-yl)-1,5-naphthyridine-3-carbonitrile]
495	789	14100	C=CC(=O)N1CC2(CCN(c3nc4cc(-c5cncn5C)cnc4c(-c4ccccc4F)c3C#N)C2)C1 [Example 19-7, 4-(2-fluorophenyl)-7-(1-methyl-1H-imidazol-5-yl)-2-(2-(2-propenoyl)-2,6-diazaspiro[3.4]octan-6-yl)-1,5-naphthyridine-3-carbonitrile]
320	280	11200	C=CC(=O)N1CC2(CCN(c3nc4cc(-c5scnc5C)cnc4c(-c4ccc(F)cc4)c3C#N)C2)C1 [Example 19-8, 4-(4-fluorophenyl)-7-(4-methyl-1,3-thiazol-5-yl)-2-(2-(2-propenoyl)-2,6-diazaspiro[3.4]octan-6-yl)-1,5-naphthyridine-3-carbonitrile]
204	56	> 5000	C=CC(=O)N1CC2(CCN(c3nc4cc(-c5sc(CO)nc5C)cnc4c(-c4ccccc4Cl)c3C#N)C2)C1 [Example 19-9, 4-(2-chlorophenyl)-7-(2-(hydroxymethyl)-4-methyl-1,3-thiazol-5-yl)-2-(2-(2-propenoyl)-2,6-diazaspiro[3.4]octan-6-yl)-1,5-naphthyridine-3-carbonitrile]
1130	113	15300	C=CC(=O)N1CC2(CCN(c3nc4cc(-c5scnc5CO)cnc4c(-c4ccccc4F)c3C#N)C2)C1 [Example 19-10, 4-(2-fluorophenyl)-7-(4-(hydroxymethyl)-1,3-thiazol-5-yl)-2-(2-(2-propenoyl)-2,6-diazaspiro[3.4]octan-6-yl)-1,5-naphthyridine-3-carbonitrile]
1560	149	> 5000	C=CC(=O)N1CC2(CCN(c3nc4cc(-c5scnc5C)ccc4c(-c4ccccc4Cl)c3C#N)C2)C1 [Example 20-1, 4-(2-chlorophenyl)-7-(4-methyl-1,3-thiazol-5-yl)-2-(2-(2-propenoyl)-2,6-diazaspiro[3.4]octan-6-yl)-3-quinolinecarbonitrile]
